Several values for one entry are separate records, joined by “and”; a condition that tells them apart may be missing. Equal values may be shown once. Read-outs that look alike come from different tables or passages of the source.
Experiments:
[1] = system: Boophilus microplus; assay: Boophilus microplus test (BOOPMI injection); type: in vivo; conditions: 20 μg/animal, after 7 days
Method: (§1) • Solvent: dimethyl sulphoxide
The solution of active compound is injected into the abdomen (Boophilus microplus), and the animals are transferred into dishes and kept in a climatized room. The activity is assessed by […] of fertile eggs.

[2] = system: Spodoptera frugiperda; assay: Spodoptera frugiperda test (SPODFR spray treatment); type: in vivo; conditions: 500 g/ha, after 7 days
[3] = system: Myzus persicae; assay: Myzus test (MYZUPE spray treatment); type: in vivo; conditions: for pest or weed control at 500 g/ha: read-out: effect (kill of aphids)
Source text: Disks of Chinese cabbage (Brassica pekinensis) infested by all stages of the green peach aphid (Myzus persicae) are sprayed with an active compound formulation of the desired concentration.

[4] = system: Meloidogyne incognita; assay: Meloidogyne incognita test (MELGIN); type: in vivo; conditions: 20 ppm, after 14 days
Method: • Solvent: 125 parts by weight of acetone
Containers are filled with sand, solution of active compound, Meloidogyne incognita egg/larvae suspension and lettuce seeds. The lettuce seeds germinate and the plants develop. On the roots, galls are formed. After 14 days, the nematicidal effect in % is determined by the formation of galls. 100% means that no galls have been found; 0% means that the number of galls on the treated plants corresponds to the untreated control.

[5] = system: Tetranychus urticae; assay: Tetranychus test, OP-resistant (TETRUR spray treatment); type: in vivo; conditions: for pest or weed control at 100 g/ha: read-out: effect (kill of spider mites)
[6] = system: Lucilia cuprina; assay: Lucilia cuprina test (LUCICU); type: in vivo; conditions: 100 ppm, after 2 days
Source text: as §1
Vessels containing horse meat treated with the active compound preparation of the desired concentration are populated with about 20 Lucilia cuprina larvae.

[7] = system: Phaedon cochleariae; assay: Phaedon test (PHAECO spray treatment); conditions: for effect (kill of beetle larvae): 500 g/ha, after 7 days
[8] = system: KM12; assay: Tumour cell proliferation, CellTiter-Glo, 96-hour incubation, KM12; type: cell-based
Method: (§2) In accordance with the invention, the substances were tested in cell-based assays for the ability of the substances of inhibiting tumour cell proliferation after a 96-hour incubation with the substance. Cell viability was tested using the CellTiter-Glo® luminescent cell viability assay (Promega). The cells were sown at a density of 2000-5000 cells/well (depending on the cell line) in 100 μl growth medium on 96-well microtiter plates. For each cell line examined, cells were sown on a separate plate to determine the luminescence at t=0 hours and t=96 hours. After overnight incubation at 37° C., the luminescence values for the t=0 samples were determined. The dose plates for the t=96 hours points in time were treated with substances diluted with growth medium. The cells were then incubated at 37° C. for 96 hours, and the luminescence values for the t=96 hours samples were then determined. For data analysis, the t=0 values were subtracted from the t=96 hours values for treated and untreated samples. The differences in luminescence in percent between substance-treated samples and control values were used to determine the growth inhibition in percent.
(§3) The substances were tested in the following cell lines which represent the stated indications in an exemplary manner: […]

[9] = system: PC3; assay: Tumour cell proliferation, CellTiter-Glo, 96-hour incubation, PC3; type: cell-based
Method: as §2, §3

[10] = biological target: human ACC2 (Homo sapiens, UniProt O00763); assay: Human ACC2 enzyme assay (ADP-Glo); conditions: ACC 2 IC50, individual measurements
[11] = system: MCF7; assay: Tumour cell proliferation, CellTiter-Glo, 96-hour incubation, MCF7; type: cell-based
Method: as §2, §3

[12] = system: H460; assay: Tumour cell proliferation, CellTiter-Glo, 96-hour incubation, H460; type: cell-based
Method: as §2, §3

[13] = system: human ACC1; assay: Human ACC1 enzyme assay (ADP-Glo); type: biochemical; conditions: for Ratio of IC50s ACC2/ACC1 (respective measurement): pairwise, same dilution series
[14] = biological target: T1, human ACC1 (Homo sapiens, UniProt Q13085); assay: Human ACC1 enzyme assay (ADP-Glo); type: biochemical
T1 construct: FLAG (C); made in house; host or cells: baculovirus-infected insect cells (Hi5)

[15] = Octanol/water distribution coefficient (logP/D), isocratic HPLC method; type: physicochemical; conditions: pH 7.4
Source text: Assay for Determining the Octanol/Water Distribution Coefficient (logP/D):
The distribution coefficient octanol/water P or D is a key parameter for estimating membrane penetration and permeability. It is defined as the ratio of the equilibrium concentrations of a substance in the two-phase system octanol/water.
It is usually stated in form of the decadic logarithm (logP or logD).
logP describes the distribution behaviour of a substance exclusively present in its neutral form. logD describes the distribution behaviour of a substance at a certain pH; depending on the ionization constant pKa of the substance, some of the substance may be present in ionic form, and some in neutral form.
The logP/D of the active compounds was determined using an isocratic HPLC method (HPLC=high performance liquid chromatography) (literature: OECD Guideline for Testing of Chemicals No. 117). The method is based on the correlation of the HPLC retention time of the test substance to that of reference substances with known distribution coefficients.
The test substance was employed as a 10 mM solution in DMSO (DMSO=dimethyl sulphoxide). 10 μl of this solution were made up to 100 μl with a methanol/water mixture in a ratio of 7+3.
The nine reference substances were dissolved individually in methanol. 100 μl each of the stock solutions were added to an HPLC vial and mixed with 300 μl of water.
A formamide solution was used to determine the hold-up time. To this end, 7 mg of formamide were dissolved in 10 ml of methanol. 100 μl of this stock solution were mixed with 500 μl of methanol and 200 μl of water.
All solutions were chromatographed using a flow rate of 1.00 ml/min.
Injection Protocol: formamide, references, test substance 1, test substance 2, . . . , formamide, references.
Evaluation of the retention times was carried out in a diode array detector (DAD) at 200-400 nm Via the molecular mass, the identity of the test substance was checked using the downstream mass spectrometer.
The HPLC run was evaluated using the Waters software Masslynx 4.1.
The logP/D values were calculated using the software “POW Determination” (proprietary development).

[16] = Membrane affinity logMA (MA-Transil); type: physicochemical; conditions: buffer pH 7.4
[17] = Plasma protein binding by equilibrium dialysis, rat; type: in vitro ADME; conditions: read-out: fu (rat)
Method: (§4) The binding of test substances to plasma proteins is determined by equilibrium dialysis by means of the Ht-dialysis apparatus (96-well) made of Teflon and a semipermeable membrane (regenerated cellulose, MWCO 12-14K). This separates 150 μl each of a plasma side and a buffer side (50 mM phosphate buffer). The test substance is added in 2 concentrations (usually 3 and 0.3 μM) to the plasma side and binds to plasma proteins. The unbound fraction of the test substance passes through the membrane and is distributed on either side until equilibrium is established (after approx. 6-8 h at 37° C.). The substance concentration on the buffer side and the plasma side is determined by LC-MS analysis. For this, both sides are brought by dilution with buffer or plasma to the same matrix (10% plasma) and then precipitated with methanol. The free (unbound) fraction (fu) is calculated from the quotient of the buffer and plasma concentration. Stability tests and recovery tests are run concurrently as controls. In addition, the substance in buffer is dialysed against buffer, to check the nonspecific binding to apparatus and membrane and establishment of equilibrium. Because during incubation the osmotic pressure of the plasma proteins leads to dilution of the plasma (volume shift), this possible error is determined by weighing blank plasma samples and is included in the calculation of fu. Establishment of equilibrium and plasma stability should have a value not lower than 80% and the recovery should be at least 30%. A free fraction of <1% is regarded as high, between 1 and 10% as moderate and >10% as low plasma protein binding.

[18] = Plasma protein binding by equilibrium dialysis, human; type: in vitro ADME; conditions: read-out: fu (human)
Method: as §4

[19] = Plasma protein binding by equilibrium dialysis, mouse; type: in vitro ADME; conditions: read-out: fu (mouse)
Method: as §4

[20] = biological target: human serum albumin (HSA) (Homo sapiens, UniProt P02768); assay: Protein binding to human serum albumin (HSA-Transil)
[21] = reference substances with known distribution coefficients; cited from earlier work
[22] = Homo sapiens, MCF7, 96 h, read-out: MCF7 IC50
[23] = ACC 1 IC50, individual measurements
[24] = Homo sapiens, MCF7, 96 h; read-out: MCF7 IC50
[25] = individual measurements, read-out: ACC 1 IC50

Chain of human ACC2 (O00763 27-2458 limits assumed): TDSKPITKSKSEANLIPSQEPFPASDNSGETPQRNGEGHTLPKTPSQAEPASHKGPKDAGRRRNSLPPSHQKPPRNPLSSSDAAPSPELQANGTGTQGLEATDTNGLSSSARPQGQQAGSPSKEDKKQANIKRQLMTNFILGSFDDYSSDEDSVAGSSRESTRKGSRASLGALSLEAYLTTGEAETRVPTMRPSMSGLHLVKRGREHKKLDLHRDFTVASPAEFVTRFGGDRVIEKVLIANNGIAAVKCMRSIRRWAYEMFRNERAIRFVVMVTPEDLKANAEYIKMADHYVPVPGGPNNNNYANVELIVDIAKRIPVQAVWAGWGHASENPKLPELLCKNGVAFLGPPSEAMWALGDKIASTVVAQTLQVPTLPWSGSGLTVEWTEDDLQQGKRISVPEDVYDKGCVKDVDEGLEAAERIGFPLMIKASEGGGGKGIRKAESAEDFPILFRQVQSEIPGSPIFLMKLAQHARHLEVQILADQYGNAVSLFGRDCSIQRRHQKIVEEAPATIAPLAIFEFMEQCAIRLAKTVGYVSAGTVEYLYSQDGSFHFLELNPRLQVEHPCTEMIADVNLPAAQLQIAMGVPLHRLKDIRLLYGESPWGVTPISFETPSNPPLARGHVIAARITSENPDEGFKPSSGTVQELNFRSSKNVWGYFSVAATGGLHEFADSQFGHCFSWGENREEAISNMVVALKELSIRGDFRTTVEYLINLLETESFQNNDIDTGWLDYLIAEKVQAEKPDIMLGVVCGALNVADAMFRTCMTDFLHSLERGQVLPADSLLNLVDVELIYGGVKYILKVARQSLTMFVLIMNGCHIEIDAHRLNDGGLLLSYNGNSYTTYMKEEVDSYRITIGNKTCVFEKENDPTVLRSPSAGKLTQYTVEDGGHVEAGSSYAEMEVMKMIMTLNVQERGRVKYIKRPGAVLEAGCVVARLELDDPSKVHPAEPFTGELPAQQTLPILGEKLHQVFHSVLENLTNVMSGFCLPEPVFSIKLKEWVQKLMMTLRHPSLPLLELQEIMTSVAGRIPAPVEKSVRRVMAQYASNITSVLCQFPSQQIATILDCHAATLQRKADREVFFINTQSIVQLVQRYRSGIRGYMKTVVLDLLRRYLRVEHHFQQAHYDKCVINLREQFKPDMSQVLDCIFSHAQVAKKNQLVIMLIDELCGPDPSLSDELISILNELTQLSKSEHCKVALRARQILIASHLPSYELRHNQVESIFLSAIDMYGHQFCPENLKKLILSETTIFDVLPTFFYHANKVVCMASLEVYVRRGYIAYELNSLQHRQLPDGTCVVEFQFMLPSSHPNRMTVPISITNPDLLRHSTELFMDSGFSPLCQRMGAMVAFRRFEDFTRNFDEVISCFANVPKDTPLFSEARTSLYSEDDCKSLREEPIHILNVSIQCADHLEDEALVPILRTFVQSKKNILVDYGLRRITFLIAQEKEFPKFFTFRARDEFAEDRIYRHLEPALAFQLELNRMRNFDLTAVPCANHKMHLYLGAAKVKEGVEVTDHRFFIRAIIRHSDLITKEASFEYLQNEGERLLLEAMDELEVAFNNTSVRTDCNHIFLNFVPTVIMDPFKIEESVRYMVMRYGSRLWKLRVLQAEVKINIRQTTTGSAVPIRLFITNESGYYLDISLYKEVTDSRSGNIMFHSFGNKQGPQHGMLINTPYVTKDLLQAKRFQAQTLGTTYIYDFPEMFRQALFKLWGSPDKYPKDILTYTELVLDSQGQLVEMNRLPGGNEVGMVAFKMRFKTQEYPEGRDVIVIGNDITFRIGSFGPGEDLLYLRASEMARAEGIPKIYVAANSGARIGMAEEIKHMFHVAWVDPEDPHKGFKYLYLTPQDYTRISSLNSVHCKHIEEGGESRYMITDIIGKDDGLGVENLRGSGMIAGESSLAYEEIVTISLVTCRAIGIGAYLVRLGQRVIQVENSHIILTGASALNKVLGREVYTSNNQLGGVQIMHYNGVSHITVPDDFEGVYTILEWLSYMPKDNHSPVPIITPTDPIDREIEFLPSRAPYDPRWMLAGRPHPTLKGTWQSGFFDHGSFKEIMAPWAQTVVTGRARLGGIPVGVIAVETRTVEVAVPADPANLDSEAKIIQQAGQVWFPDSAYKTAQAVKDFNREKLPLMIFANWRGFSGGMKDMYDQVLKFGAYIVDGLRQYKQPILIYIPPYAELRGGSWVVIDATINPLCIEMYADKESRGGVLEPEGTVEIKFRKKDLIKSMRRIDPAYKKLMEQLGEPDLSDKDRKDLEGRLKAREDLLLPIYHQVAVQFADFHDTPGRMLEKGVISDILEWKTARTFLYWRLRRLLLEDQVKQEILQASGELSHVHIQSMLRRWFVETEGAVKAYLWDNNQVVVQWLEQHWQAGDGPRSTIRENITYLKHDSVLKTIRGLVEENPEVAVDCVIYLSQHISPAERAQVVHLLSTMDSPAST
Chain of human serum albumin (HSA) (P02768 25-609): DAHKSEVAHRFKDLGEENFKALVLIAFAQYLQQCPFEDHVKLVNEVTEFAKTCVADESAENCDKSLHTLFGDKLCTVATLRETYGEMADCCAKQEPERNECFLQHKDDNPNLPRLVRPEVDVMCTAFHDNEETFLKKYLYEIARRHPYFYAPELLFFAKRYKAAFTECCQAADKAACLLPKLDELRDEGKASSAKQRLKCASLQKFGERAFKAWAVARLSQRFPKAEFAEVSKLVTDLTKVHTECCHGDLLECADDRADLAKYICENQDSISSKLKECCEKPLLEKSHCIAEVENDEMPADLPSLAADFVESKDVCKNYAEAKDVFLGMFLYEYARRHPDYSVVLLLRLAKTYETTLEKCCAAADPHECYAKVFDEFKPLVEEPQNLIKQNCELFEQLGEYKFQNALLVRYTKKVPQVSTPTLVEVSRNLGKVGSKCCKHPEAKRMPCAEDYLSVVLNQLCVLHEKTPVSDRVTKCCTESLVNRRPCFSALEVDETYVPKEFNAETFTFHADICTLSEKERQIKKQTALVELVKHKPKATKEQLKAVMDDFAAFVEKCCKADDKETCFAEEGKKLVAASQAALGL

Compound | nematicidal effect (formation of galls) [4] [%] | effect (kill of beetle larvae) [7] [%] | IC50 [10] | melting point [°C] | IC50 [11, 22] [nM] | Selectivity ACC1 vs. ACC2 (mean of the individual measurements ± standard deviation) [13] | Ratio of IC50s ACC2/ACC1 (respective measurement) [13] | IC50 [14, 23] | IC50 [11, 24] [nM] | IC50 [14, 25] | chromatographic logP [15] | logMA [16] | fraction unbound [17] | fraction unbound [18] | fraction unbound [19] | Kd [20] [nM] | other results
Cc1ccc(-c2ccc(F)cc2)c(C)c1C1=C(O)C2(CCC(F)(F)CC2)NC1=O [Example I-1-a-2] | 100 | 100 |  |  |  |  |  |  |  |  |  |  |  |  |  |  | effect (no fertile eggs) [1]: 80%; effect (kill of caterpillars) [2]: 100%; effect (kill of aphids) ([3]; 500 g/ha, after 6 days): 100%; effect (kill of spider mites) ([5]; 500 g/ha, after 6 days): 100%; kill of larvae [6]: 100%
Cc1ccc(-c2ccc(Cl)cc2)c(C)c1C1=C(O)C2(CCC(F)(F)CC2)NC1=O [Example 1-5, 3-(4′-Chloro-2,4-dimethylbiphenyl-3-yl)-8,8-difluoro-4-hydroxy-1-azaspiro[4.5]dec-3-en-2-one] | 100 |  | 2700 nM | 141 to 145 | 205 | 12.4 | 12.4 | 218 nM |  |  |  |  |  |  |  |  | IC50 ([8]; Homo sapiens, KM12, 96 h, read-out: KM12 IC50): 668 nM; IC50 ([9]; Homo sapiens, PC-3, 96 h, read-out: PC3 IC50): 506 nM; pest or weed control at 500 g/ha ([3]; Myzus persicae, 144 h): 100%; pest or weed control at 100 g/ha ([5]; Tetranychus urticae, 144 h): 90%; IC50 ([12]; Homo sapiens, NCI-H460, 96 h, read-out: H460 IC50): 769 nM
Cc1ccc(-c2ccc(F)c(F)c2)cc1C1=C(O)C2(CCC(F)(F)CC2)NC1=O [Example 1-6, 3-(3′,4′-Difluoro-4-methylbiphenyl-3-yl)-8,8-difluoro-4-hydroxy-1-azaspiro[4.5]dec-3-en-2-one] |  | 100 | 3870 nM and 8030 nM | 223 |  | 51.9 ± 22.8 |  |  | 45 | 133 nM and 107 nM |  |  |  |  |  |  | IC50 ([8]; Homo sapiens, KM12, 96 h; read-out: KM12 IC50): 257 nM; IC50 ([9]; Homo sapiens, PC-3, 96 h; read-out: PC3 IC50): 158 nM; inhibition at 20 g/ha ([3]; Myzus persicae, 144 h, 20 g/ha, 6 d, read-out: % activity MYZUPE): 100%; pest or weed control at 500 g/ha ([3]; Myzus persicae, 144 h, 500 g/ha, after 6 days): 100%; inhibition at 20 g/ha ([5]; Tetranychus urticae, 144 h, 20 g/ha, 6 d, read-out: % activity TETRUR): 90%; pest or weed control at 100 g/ha ([5]; Tetranychus urticae, 144 h, 100 g/ha, after 6 days): 90%; inhibition at 20 g/ha ([7]; Phaedon cochleariae, 168 h, read-out: % activity PHAECO): 67%; IC50 ([12]; Homo sapiens, NCI-H460, 96 h; read-out: H460 IC50): 371 nM
Cc1ccc(-c2ccc(Cl)cc2)cc1C1=C(O)C2(CCCCC2)NC1=O [V.2-b, 3-(4′-Chloro-4-methylbiphenyl-3-yl)-4-hydroxy-1-azaspiro[4.5]dec-3-en-2-one, reference compound] |  |  | 2400 nM and 2760 nM |  | 41 | 12.8 ± 1.3 | 11.5 and 14.1 | 208 nM and 196 nM |  |  | 2.77 | 2.05 (1.9-2.2, n = 2) | 0.0071 | 0.0036 | 0.0281 | 3220 | 
Cc1ccc(-c2ccc(Cl)c(F)c2)cc1C1=C(O)C2(CCCCC2)NC1=O [V.1-b, 3-(4′-Chloro-3′-fluoro-4-methylbiphenyl-3-yl)-4-hydroxy-1-azaspiro[4.5]dec-3-en-2-one, reference compound] |  |  | 1950 nM |  |  | 46.9 | 45.9 |  | 22 | 43 nM | 2.8 | 2.55 (2.4-2.9, n = 4) | 0.0612 | 0.004 | 0.0746 | 3500 | 
Clc1ccc(C(c2ccc(Cl)cc2)C(Cl)(Cl)Cl)cc1 [DDT] |  |  |  |  |  |  |  |  |  |  |  |  |  |  |  |  | log P [21]: 6.2

From US20140011853A1, “SUBSTITUTED 3-(BIPHENYL-3-YL)-8,8-DIFLUORO-4-HYDROXY-1-AZASPIRO[4.5]DEC-3-EN-2-ONES FOR THERAPY” (BAYER INTELLECTUAL PROPERTY GMBH, priority 2011, published 2014)
